Experimental data: patent publication US20150202203A1, “Method of Treating Gastrointestinal Stromal Tumors” (Novartis AG, priority 2012, published 2015)
“Also recorded” adds a separate entry of the source. Where two headings read alike, the source gives them in different places.

Experiments:
[1] = tested on: GIST430 cells; settings: Imatinib combined with Dovitinib, 72 hrs
Description: GIST-T1 was obtained from Kochi Medical School, Kochi, Japan.
GIST882 cells were cultured in RPMI-1640 (ATCC Catalog #30-2001) supplemented with 15% FBS and 1% L-glutamine, GIST48 cells in F10 (Gibco/Invitrogen Catalog #11550-043) supplemented with 15% FBS, 0.5% Mito+ (BD Bioscience Catalog #355006), 1% BPE (BD Bioscience/Fisher Catalog#354123) and 1% L-glutamine, GIST430 cells in IMEM (Gib-co/Invitrogen Catalog #12440-053) supplemented with 15% FBS and 1% L-glutamine, and GIST-T1 cells in DMEM (Gibco/Invitrogen Catalog #11965) supplemented with 10% FBS.
10,000 cells suspended in 80 μl media were seeded into each well of a 96-well cell-culture plate and grown for 24 hours prior to treatment. 10 μl of 60 μg/mL heparin (Sigma Catalog # H3149) was added to each well, and then 10 μl of 50 μg/mL FGF2 (R&D Catalog #233-FB/CF) or media was added to each well of the plates. 10 μl of each of the compound dilutions described above and 10 μl of media were added to wells to a […] such that all pair-wise combinations as well as the single agents were represented.

[2] = tested on: GIST882 cells
Description: (§1) GIST882 was established from an untreated human GIST with a homozygous missense mutation in KIT exon 13, encoding a K642E mutant KIT protein (Tuveson D A, Willis N A, et al. Oncogene 2001; 20: 5054-5058). […] GIST48 has a primary homozygous exon 11 missense mutation (V560D) and a secondary heterozygous exon 17 missense mutation (D820A). GIST430 has a primary heterozygous exon 11 in-frame deletion and a secondary heterozygous exon 13 missense mutation (V654A). […] It was established from a metastatic human GIST with a heterozygous deletion of 57 bases in exon 11 of KIT (Taguchi T, Sonobe H, Toyonaga S, et al. Lab Invest 2002; 82: 663-665).
(§2) 10,000 cells suspended in 80 μl media were seeded into each well of a 96-well cell-culture plate and grown for 24 hours prior to treatment. 10 μl of 60 μg/mL heparin (Sigma Catalog # H3149) was added to each well, and then 10 μl of 50 μg/mL FGF2 (R&D Catalog #233-FB/CF) or media was added to each well of the plates. 10 μl of each of the compound dilutions described above and 10 μl of media were added to wells to a final volume 120 μl such that all pair-wise combinations as well as the single agents were represented. Cells were incubated for 72 hrs at 37° C. in a 5% CO2 incubator following compound addition. Cell proliferation was measured using the CellTiter-Glo luminescent cell viability assay (Promega catalog # G755B) and Victor4 plate reader (Perkin Elmer).

[3] = tested on: GIST-T1 cells; test: CellTiter-Glo cell viability assay, GIST-T1
Description: as §1, §2

[4] = tested on: KIT; test: KIT inhibition by Western blot in GIST cell lines; assay type: cell-based, human; settings: GIST-T1, GIST882 and GIST48; compared with dovitinib
Description: Protein lysates were prepared from cell monalayers using RIPA buffer (Cell Signaling Technology Catalog #9806) according to the procedure described by the manufacturer. Antibod-ies to detect phospho-KIT (Catalog #3073S), total KIT (Catalog #3308), phospho-AKT S473 (Catalog #4058), total AKT (Catalog #9272), phospho-ERK (Catalog #9101), total ERK (Catalog #9107) and phospho-FRS2 (Catalog #3864) were purchased from Cell Signaling Technology. Antibody to GAPDH (Catalog # MAB374) was purchased from Millipore and anti-FRS2(H-91) (Catalog #sc-8318) from Santa Cruz. Bound antibody was detected using the LI-COR Odyssey Infrared Imaging System.

[5] = tested on: GIST; settings: cited from earlier work
[6] = Imatinib combined with Dovitinib, 72 hrs
[7] = absence of added FGF2, single agent
[8] = presence of added FGF2, single agent

SMILES | Combination Index for 70% inhibition of GIST cell proliferation [1] | Synergy Score for inhibition of GIST cell proliferation [1] | Combination Index for 70% inhibition of GIST cell proliferation [2, 6] | Synergy Score for inhibition of GIST cell proliferation [2, 6] | growth inhibition [2, 7] | growth inhibition [2, 8] | Combination Index for 70% inhibition of GIST cell proliferation [3, 6] | Synergy Score for inhibition of GIST cell proliferation [3, 6] | growth inhibition [3, 7] | growth inhibition [3, 8] | growth inhibition ([3]; presence of added FGF2, single agent, listed as Dovtinib) | KIT inhibition (Western blot) [4] | progression-free survival (PFS) ([5]; 800 mg/day compared to 400 mg/day, advanced GIST harboring KIT exon 9 mutations) | RFS and overall survival ([5]; adjuvant 400 mg once daily, 36 months vs 12 months (SSGXVIII/AIO)) | recurrence-free survival (RFS) ([5]; adjuvant 400 mg/day for 12 months vs placebo, after complete resection (ACOSOGZ9001)) | GI50 shift in the presence of added FGF2 ([2]; with vs without added FGF2) | growth inhibition ([3]; absence of added FGF2, single agent, listed as nilotinib) | GI50 shift in the presence of added FGF2 ([3]; with vs without added FGF2)
CN1CCN(c2ccc3nc(-c4c(N)c5c(F)cccc5[nH]c4=O)[nH]c3c2)CC1 [Dovitinib, 4-amino-5-fluoro-3-[6-(4-methylpiperazin-1-yl)-1H-benzimidazol-2-yl]quinolin-2(1H)-one] | 0.624 | 0.635 | 0.965 | 0.321 | effective | restores maximum growth inhibition; also recorded: maximum inhibition was restored to levels comparable to the absence of FGF2 | 0.835 | 0.422 | effective | restores maximum growth inhibition; also recorded: maximum inhibition was restored to levels comparable to the absence of FGF2 | same level of maximum inhibition in the presence or absence of added FGF2 | – | – | – | – | – | – | –
Cc1ccc(NC(=O)c2ccc(CN3CCN(C)CC3)cc2)cc1Nc1nccc(-c2cccnc2)n1 [Imatinib, 4-(4-methylpiperazin-1-ylmethyl)-N-[4-methyl-3-(4-(pyridin-3-yl)pyrimidin-2-ylamino)phenyl]-benzamide] | – | – | – | – | efficacious | less sensitive | – | – | efficacious | less sensitive | – | more potent KIT inhibitor than dovitinib | significantly improves | superior to 12 months | significantly prolonged RFS | – | – | –
Cc1cn(-c2cc(NC(=O)c3ccc(C)c(Nc4nccc(-c5cccnc5)n4)c3)cc(C(F)(F)F)c2)cn1 [Nilotinib, 4-methyl-3-[[4-(3-pyridinyl)-2-pyrimidinyl]amino]-N-[5-(4-methyl-1H-imidazol-1-yl)-3-(trifluoromethyl)phenyl]benzamide] | – | – | – | – | sensitive to KIT inhibition | less sensitive | – | – | inhibits growth of GIST-T1 cells | less sensitive; also recorded: significantly decreased | – | – | – | – | – | greater than 10 fold | sensitive to KIT inhibition | greater than 10 fold
